Values joined by “and” are separate entries in the source; they are usually repeats but may differ in a detail not shown here. Equal values may be shown once. Where a name gives a salt, the structure may show the parent alone. Read-outs that look alike come from different tables or passages of the source. Blank lines part the entries; values can stand above or below the compound they belong to.
Assays:
[1] = cited from earlier work
[2] = pKa; assay type: physicochemical
[3] = test system: rat small intestine; settings: cited from earlier work
[4] = test system: rat intestine (proximal jejunum and distal ileum); test: In situ single-pass intestinal perfusion; assay type: in vivo; settings: physiological vs alternate pH, HDS, n = 6
[5] = test system: Caco-2 cell monolayers; settings: human, Caco-2, pH 7.5
[6] = Transport studies across Caco-2 cell monolayers; settings: human
[7] = test system: P-gp; settings: cited from earlier work
[8] = test system: Caco-2 cell monolayers; test: Transport studies across Caco-2 cell monolayers
[9] = test system: Caco-2 cells; settings: Caco-2, initial concentration based on HDS in 250 ml water; cited from earlier work

Isoelectric point (maximum unionized fraction) [2]: 8.4 pH
Effect of change of pH (6.5 vs 7.5) on permeability in jejunum and ileum [4]: did not significantly affect
Increase in AP-BL direction transport caused by verapamil [5]: 1.5 times
Papp at 120 min ([6]; Caco-2, pH 6.5): 5.96 ± 1.96 ×10⁻⁶ cm/s
Papp A→B at 120 min, 120 μg/ml ([6]; Caco-2, pH 7.5): 14.2 ± 1.5 ×10⁻⁶ cm/s
Papp B→A at 120 min, 120 μg/ml ([6]; Caco-2, pH 7.5): 46.7 ± 6.5 ×10⁻⁶ cm/s
Papp at 120 min ([6]; Caco-2, pH 7.5): 15.9 ± 2.2 ×10⁻⁶ cm/s
Structure (SMILES): CC(CCc1ccccc1)NCC(O)c1ccc(O)c(C(N)=O)c1 (stereo not drawn) [Labetalol]
Time to reach maximum plasma concentration (tmax) ([1]; 100 mg oral dose, healthy volunteers): 48 min
Systemic BA (mean) ([1]; hypertensive subjects): 33%
Dose excreted in the urine as unchanged drug ([1]; man): up to 5%
Orally administered dose of radioactivity excreted by urine ([1]; within 24 h, two subjects, 200 mg oral dose): 55% and 60%
Increase in apparent absorption rate constant of labetalol produced by verapamil ([3]; highest labetalol concentration (100)): about 53%
Increase in apparent absorption rate constant of labetalol produced by verapamil ([3]; lowest labetalol concentration (10)): about 84%

Effect of change of pH (6.5 vs 7.5) on permeability in jejunum and ileum [4]: did not significantly affect
Effect of verapamil on permeability in AP-BL and BL-AP directions ([8]; 0.1 mM verapamil, 0.1 times HDS (40 μg/ml), AP pH 7.5): no effect
Increase of ER under AP pH 6.5 ([8]; AP pH 6.5 compared with AP pH 7.5): 3.6 times
Papp at 120 min ([6]; Caco-2, pH 6.5): 9.44 ± 3.44 ×10⁻⁶ cm/s
Papp at 120 min ([6]; Caco-2, pH 7.5): 23.2 ± 7.1 ×10⁻⁶ cm/s
Structure (SMILES): COCCc1ccc(OCC(O)CNC(C)C)cc1 (stereo not drawn) [Metoprolol]
Interaction with P-gp [7]: does not interact with P-gp

Structure (SMILES): CC(CCc1ccccc1)NCC(O)c1ccc(O)c(C(N)=O)c1 (stereo not drawn) [labetalol hydrochloride]
Absorption from the GI tract ([1]; FDA product information of Trandate): completely absorbed

Structure (SMILES): CCn1cc(C(=O)O)c(=O)c2cc(F)c(N3CCNC(C)C3)c(F)c21 (stereo not drawn) [lemofloxacin, lomefloxacin]
Permeability classification based on comparison to labetalol [9]: high permeability

From publication PMC3605724 (Molecular pharmaceutics, 2013)
